Among the data in patent US10196421B2, “Nucleophile-reactive sulfonated compounds for the (radio)labelling of (bio)molecules; precursors and conjugates thereof” (Advanced Accelerator Applications SA, priority 2012, dated 2019) are solubility in water values, retold here.

This data set is described as follows: solubility of Cy 5.5 before and after conjugation with the sulfonated prosthetic compound. The following applies: unconjugated precursor. The format is physicochemical. The source says:
This fact confirms that the present invention enables to increase the hydrophilic character of the (bio)molecules conjugated therewith.

For the substance Cy 5.5, the solubility in water result was “water insoluble”.
